Measured values from US20200003756A1, “METHOD FOR OBSERVING SEBACEOUS GLAND” (MANDOM CORPORATION, priority 2017, published 2020).

Tested on: sebaceous-gland-structure A
Test: Classification of the state of lipid droplets in cells of the outermost layer of the sebaceous gland after suspension culture (Example 1)
Assay type: cell-based
Parameters: key to State of lipid droplet in cell contained in outermost layer of sebaceous gland FIG. 6(A) / State of lipid droplet in cell contained in outermost layer of sebaceous gland FIG. 6(B) / State of lipid droplet in cell contained in outermost layer of sebaceous gland FIG. 6(C) / State of lipid droplet in cell contained in outermost layer of sebaceous gland FIG. 6(D) / State of lipid droplet in cell contained in outermost layer of sebaceous gland FIG. 6(E) / State of lipid droplet in cell contained in outermost layer of sebaceous gland FIG. 6(F) / State of lipid droplet in cell contained in outermost layer of sebaceous gland FIG. 6(G): “◯ (open circle)” shows that a given state shown in FIG. 6 was observed; —: “-” shows that the given state shown in FIG. 6 was not observed
Details: for State of lipid droplet in cell contained in outermost layer of sebaceous gland FIG. 6(A): (A) No lipid droplet is found in the cell; for State of lipid droplet in cell contained in outermost layer of sebaceous gland FIG. 6(B): (B) A few lipid droplets are found in the cell; for State of lipid droplet in cell contained in outermost layer of sebaceous gland FIG. 6(C): (C) There is a space of lipid droplets in the cell; for State of lipid droplet in cell contained in outermost layer of sebaceous gland FIG. 6(D): (D) Lipid droplets start erosion of the nucleus; for State of lipid droplet in cell contained in outermost layer of sebaceous gland FIG. 6(E): (E) Lipid droplets start being connected to each other; for State of lipid droplet in cell contained in outermost layer of sebaceous gland FIG. 6(F): (F) The cell is fully occupied by lipid droplets; for State of lipid droplet in cell contained in outermost layer of sebaceous gland FIG. 6(G): (G) The cell is disappeared
Description: Under a stereoscopic microscope, a subcutaneous tissue was removed from a skin tissue by using scissors. Next, collagenous fibers were removed from the dermis in the skin tissue by using scissors and tweezers after removing the subcutaneous tissue, to obtain a sebaceous-gland-structure in which a sebaceous gland was exposed (hereinafter referred to as “sebaceous-gland-structure A”). […] In the sebaceous-gland-structure A, a sebaceous gland was exposed.
The sebaceous-gland-structure A obtained in Preparation Example 6 was immersed in a 4% by mass PFA-containing PBS solution at 4° C. for 30 minutes to fix the sebaceous-gland-structure A, thereby giving a fixed sample. The resulting fixed sample was washed by incubating the sample in a 2% by mass BSA-containing PBSTT solution at 4° C. for 1 hour. Washing was carried out three times.
The fixed sample after the washing was incubated in the primary antibody-containing solution obtained in Preparation Example 2 at 4° C. for 24 hours. The fixed sample after the incubation was washed by incubating the fixed sample in a […] by mass BSA-containing PBSTT solution at 4° C. for 1 hour. Washing was carried out three times.
The fixed sample after the washing was incubated in the staining reagent A obtained in Preparation Example 3 at 4° C. for 12 hours, to stain the sebaceous gland basal cell and the nucleus present in the outermost layer of the sebaceous gland. The stained fixed sample was washed by incubating the sample in a 2% by mass BSA-containing PBSTT solution at 4° C. for 1 hour. Washing was carried out three times.
The fixed sample after the washing was incubated in the staining reagent B obtained in Preparation Example 4 at room temperature (25° C.) for 30 minutes, to stain the sebum contained in the sebaceous-gland-structure A. The stained fixed sample was washed by incubating the sample in a 2% by mass BSA-containing PBSTT solution at 4° C. for 1 hour. Washing was carried out three times.
The fixed sample after the washing was subjected to incubation in a 20% by mass glycerol-containing PBS solution at 4° C. for 1 hour, incubation in a 50% by mass glycerol-containing PBS solution at 4° C. for 1 hour, and incubation in a 80% by mass glycerol-containing PBS solution at 4° C. for 1 hour, to substitute the moisture contained in the fixed sample with glycerol.
An appropriate amount (for example, 50 μL) of an 80 by mass aqueous glycerol solution was added to a region surrounded by the spaced contained in the spacer-attached coverslip obtained in Preparation Example 5. Next, the glycerol-substituted sebaceous-gland-structure A was placed on the region surrounded by the spacer contained in the spacer-attached coverslip so that the side of the sebaceous gland was directed downwards. Thereafter, the region surrounded by the spacer contained in the spacer-attached coverslip was covered with a round-shaped coverslip (diameter: 12 mm), to obtain an observation sample.
Linoleic acid was added to the mixed medium obtained in Preparation Example 1 (hereinafter also referred to as “test sample A”) so that the concentration of linoleic acid was 1×10^−4 M, to obtain a test sample B. In addition, linoleic acid was added to the mixed medium obtained in Preparation Example 1 so that the concentration of linoleic acid was 1×10^−3 M, to obtain a test sample C.
One milliliter of the test sample A was added to each well of a 24-well plate. Next, the sebaceous-gland-structure A obtained in Preparation Example 6 was cultured in a suspended state in the test sample A contained in each well of the 24-well plate in the presence of 5% by volume carbon dioxide at 37° C. for 24 hours, to contact the sebaceous-gland-structure A with the test sample A (Experiment number 1). In addition, the sebaceous-gland-structure A was contacted with the test sample A in the same manner as in Experiment number 1 except that in Experiment number 1, 48-hour culture was carried out in place of 24-hour culture (Experiment number 2). […]

[1] = linoleic acid 1 × 10^−3 M, culture 24 h (Experiment 5)
[2] = linoleic acid 1 × 10^−3 M, culture 48 h (Experiment 6)
[3] = linoleic acid 1 × 10^−4 M, culture 24 h (Experiment 3)
[4] = linoleic acid 1 × 10^−4 M, culture 48 h (Experiment 4)

With `CCCCC/C=C\C/C=C\CCCCCCCC(=O)O` [linoleic acid, Linoleic acid] the “State of lipid droplet in cell contained in outermost layer of sebaceous gland FIG. 6(A)” value (shortened to “State … of sebaceous gland FIG. 6(A)”) [1] was “◯”, the “State of lipid droplet in cell contained in outermost layer of sebaceous gland FIG. 6(B)” value (“State … of sebaceous gland FIG. 6(B)” for short) [1] was “◯” and the “State of lipid droplet in cell contained in outermost layer of sebaceous gland FIG. 6(C)” value (“State … of sebaceous gland FIG. 6(C)” below) [1] was “◯”. For the same molecule, the “State of lipid droplet in cell contained in outermost layer of sebaceous gland FIG. 6(D)” value (shortened to “State … of sebaceous gland FIG. 6(D)”) [1] was “◯”, the “State of lipid droplet in cell contained in outermost layer of sebaceous gland FIG. 6(E)” value (“State … of sebaceous gland FIG. 6(E)” for short) [1] was “◯” and the “State of lipid droplet in cell contained in outermost layer of sebaceous gland FIG. 6(F)” value (“State … of sebaceous gland FIG. 6(F)” below) [1] was “—”. The “State of lipid droplet in cell contained in outermost layer of sebaceous gland FIG. 6(G)” value (shortened to “State … of sebaceous gland FIG. 6(G)”) [1] was “◯”, the “State … of sebaceous gland FIG. 6(A)” value [2] was “◯” and the “State … of sebaceous gland FIG. 6(B)” value [2] was “◯”. For the same molecule, the “State … of sebaceous gland FIG. 6(C)” value [2] was “◯”, the “State … of sebaceous gland FIG. 6(D)” value [2] was “◯” and the “State … of sebaceous gland FIG. 6(E)” value [2] was “◯”. The “State … of sebaceous gland FIG. 6(F)” value [2] was “◯”, the “State … of sebaceous gland FIG. 6(G)” value [2] was “◯” and the “number of cells progressing sebum production (tendency from Table 2)” value (linoleic acid 1×10^−4 M and 1×10^−3 M, culture 24 h and 48 h) was “the higher the linoleic acid concentration in the test sample is and the longer the culture time is, the larger the number of cells progressing sebum production is”. The “State … of sebaceous gland FIG. 6(A)” value [3] was “◯”, the “State … of sebaceous gland FIG. 6(B)” value [3] was “◯” and the “State … of sebaceous gland FIG. 6(C)” value [3] was “—”. The “State … of sebaceous gland FIG. 6(D)” value [3] was “—”, the “State … of sebaceous gland FIG. 6(E)” value [3] was “—” and the “State … of sebaceous gland FIG. 6(F)” value [3] was “—”. For the same molecule, the “State … of sebaceous gland FIG. 6(G)” value [3] was “—”, the “State … of sebaceous gland FIG. 6(A)” value [4] was “◯” and the “State … of sebaceous gland FIG. 6(B)” value [4] was “◯”. For the same molecule, the “State … of sebaceous gland FIG. 6(C)” value [4] was “◯”, the “State … of sebaceous gland FIG. 6(D)” value [4] was “—” and the “State … of sebaceous gland FIG. 6(E)” value [4] was “—”. For the same molecule, the “State … of sebaceous gland FIG. 6(F)” value [4] was “—” and the “State … of sebaceous gland FIG. 6(G)” value [4] was “—”.
